test system: Plutella xylostella; assay: Plutella xylostella leaf dip method (cabbage leaves); type: in vivo; conditions: foliar, second instar larvae, 72 h after release, dead and moribund combined, compared to untreated control, read-out: Percent mortality
Protocol: The leaf dip method was used for testing, wherein the required quantity of the compounds were weighed and dissolved in a surfactant solution, kept on a Vortex at 2000 rpm with zirconia beads for 90 min for proper mixing and then diluted with 0.01% Triton-X solution to the desired test concentration. Cabbage leaves were dipped in the solution for 10 seconds, shade dried for 20 min and then transferred to bioassay trays. A single second instar larva was released into each bioassay tray cell and the tray was covered with a lid. The bio-assay trays were kept under laboratory conditions at a temperature of 25° C. and relative humidity of 70%. Observations on dead, moribund and living larvae were recorded at 72 h after the release. Percent mortality was calculated by combining dead and moribund larvae and comparing the result to the one of the untreated control.

Which mortality at 300 ppm does the source give for `CCS(=O)(=O)c1cc2cc(C(F)(F)F)ccn2c1-c1nc2cc(C(F)(F)F)cnc2n1C` [Compound 5, 2-(2-(Ethylsulfonyl)-7-(trifluoromethyl)indolizin-3-yl)-3-methyl-6-(trifluoromethyl)-3H-imidazo[4,5-b]pyridine] here?
The mortality at 300 ppm was > 70%.

With `CCS(=O)(=O)c1cc2c(-c3cc(Cl)cc(Cl)c3)cccn2c1-c1nc2cc(C(F)(F)F)cnc2n1C` [Compound 6, 2-(8-(3,5-Dichlorophenyl)-2-(ethylsulfonyl)indolizin-3-yl)-3-methyl-6-(trifluoromethyl)-3H-imidazo[4,5-b]pyridine] as the compound, how does the mortality at 300 ppm read?
The mortality at 300 ppm was > 70%.

For `CCS(=O)(=O)c1nn2c(C)cc(C)nc2c1-c1nc2cc(C(F)(F)F)ncc2n1C` [Compound 12, 2-(2-(Ethylsulfonyl)-5,7-dimethylpyrazolo[1,5-a]pyrimidin-3-yl)-3-methyl-6-(trifluoromethyl)-3H-imidazo[4,5-c]pyridine], which mortality at 300 ppm is on record?
Its mortality at 300 ppm is > 70%.

How did the mortality at 300 ppm turn out when `CCS(=O)(=O)c1nn2cccnc2c1-c1nc2cc(S(=O)(=O)C(F)(F)F)ccc2o1` [Compound 18, 2-(2-(Ethylsulfonyl)pyrazolo[1,5-a]pyrimidin-3-yl)-5-((trifluoromethyl)sulfonyl)benzo[d]oxazole] was run?
The mortality at 300 ppm was > 70%.

How did the mortality at 300 ppm turn out when `CCSc1nn2c(-c3ccc(F)cc3)ccnc2c1-c1nc2cc(C(F)(F)F)ncc2n1C` [Compound 20, 2-(2-(Ethylthio)-7-(4-fluorophenyl)pyrazolo[1,5-a]pyrimidin-3-yl)-3-methyl-6-(trifluoromethyl)-3H-imidazo[4,5-c]pyridine] was run?
The mortality at 300 ppm was > 70%.

How did the mortality at 300 ppm turn out when `CCSc1nn2c(-c3ccc(OC(F)(F)F)cc3)ccnc2c1-c1nc2cc(C(F)(F)F)cnc2n1C` [Compound 27, 2-(2-(Ethylthio)-7-(4-(trifluoromethoxy)phenyl)pyrazolo[1,5-a]pyrimidin-3-yl)-3-methyl-6-(trifluoromethyl)-3H-imidazo[4,5-b]pyridine] was run?
Its mortality at 300 ppm is > 70%.

For `CCS(=O)(=O)c1nn2c(-c3ccc(OC(F)(F)F)cc3)ccnc2c1-c1nc2cc(C(F)(F)F)cnc2n1C` [Compound 29, 2-(2-(Ethylsulfonyl)-7-(4-(trifluoromethoxy)phenyl)pyrazolo[1,5-a]pyrimidin-3-yl)-3-methyl-6-(trifluoromethyl)-3H-imidazo[4,5-b]pyridine], which mortality at 300 ppm is on record?
Its mortality at 300 ppm is > 70%.

Which mortality at 300 ppm does the source give for `CCS(=O)(=O)c1nn2c(-c3ccc(OC(F)(F)F)cc3)ccnc2c1-c1nc2cc(C(F)(F)F)ncc2n1C` [Compound 30, 2-(2-(Ethylsulfonyl)-7-(4-(trifluoromethoxy)phenyl)pyrazolo[1,5-a]pyrimidin-3-yl)-3-methyl-6-(trifluoromethyl)-3H-imidazo[4,5-c]pyridine] here?
Its mortality at 300 ppm is > 70%.

Which mortality at 300 ppm does the source give for `CCS(=O)(=O)c1nn2c(-c3ccc(F)cc3)ccnc2c1-c1nc2cc(S(=O)(=O)C(F)(F)F)ccc2o1` [Compound 34, 2-(2-(Ethylsulfonyl)-7-(4-fluorophenyl)pyrazolo[1,5-a]pyrimidin-3-yl)-5-((trifluoromethyl)sulfonyl)benzo[d]oxazole] here?
The mortality at 300 ppm was > 70%.

`CCSc1nn2c(-c3ccc(Cl)cc3)ccnc2c1-c1nc2cc(C(F)(F)F)ncc2n1C` [Compound 35, 2-(7-(4-Chlorophenyl)-2-(ethylthio)pyrazolo[1,5-a]pyrimidin-3-yl)-3-methyl-6-(trifluoromethyl)-3H-imidazo[4,5-c]pyridine] was tested. Which mortality at 300 ppm did it give?
Its mortality at 300 ppm is > 70%.

Which mortality at 300 ppm does the source give for `CCS(=O)(=O)c1nn2c(-c3ccc(Cl)cc3)ccnc2c1-c1nc2cc(S(=O)(=O)C(F)(F)F)ccc2o1` [Compound 40, 2-(7-(4-Chlorophenyl)-2-(ethylsulfonyl)pyrazolo[1,5-a]pyrimidin-3-yl)-5-((trifluoromethyl)sulfonyl)benzo[d]oxazole] here?
Its mortality at 300 ppm is > 70%.

With `CCS(=O)(=O)c1nn2c(-c3cc(Cl)cc(Cl)c3)ccnc2c1-c1nc2cc(S(=O)(=O)C(F)(F)F)ccc2o1` [Compound 43, 2-(7-(3,5-Dichlorophenyl)-2-(ethylsulfonyl)pyrazolo[1,5-a]pyrimidin-3-yl)-5-((trifluoromethyl)sulfonyl)benzo[d]oxazole] as the compound, how does the mortality at 300 ppm read?
The mortality at 300 ppm was > 70%.

How did the mortality at 300 ppm turn out when `CCS(=O)(=O)c1nn2ccc(-c3ccccc3)nc2c1-c1nc2cc(C(F)(F)F)ncc2n1C` [Compound 46, 2-(2-(Ethylsulfonyl)-5-phenylpyrazolo[1,5-a]pyrimidin-3-yl)-3-methyl-6-(trifluoromethyl)-3H-imidazo[4,5-d]pyridine] was run?
The mortality at 300 ppm was > 70%.

How did the mortality at 300 ppm turn out when `CCSc1nn2cc(Cl)cnc2c1-c1nc2cc(C(F)(F)F)cnc2n1C` [Compound 48, 2-(6-Chloro-2-(ethylthio)pyrazolo[1,5-a]pyrimidin-3-yl)-3-methyl-6-(trifluoromethyl)-3H-imidazo[4,5-b]pyridine] was run?
The mortality at 300 ppm was > 70%.

`CCS(=O)(=O)c1nn2ccc(-c3ccc(F)cc3)nc2c1-c1nc2cc(C(F)(F)F)cnc2n1C` [Compound 62, 2-(2-(Ethylsulfonyl)-5-(4-fluorophenyl)pyrazolo[1,5-a]pyrimidin-3-yl)-3-methyl-6-(trifluoromethyl)-3H-imidazo[4,5-b]pyridine] was tested. Which mortality at 300 ppm did it give?
Its mortality at 300 ppm is > 70%.

For `CCS(=O)(=O)c1nn2cc(-c3ccccc3)cnc2c1-c1nc2cc(C(F)(F)F)ncc2n1C` [Compound 66, 2-(2-(Ethylsulfonyl)-6-phenylpyrazolo[1,5-a]pyrimidin-3-yl)-3-methyl-6-(trifluoromethyl)-3H-imidazo[4,5-c]pyridine], which mortality at 300 ppm is on record?
The mortality at 300 ppm was > 70%.

For `CCS(=O)(=O)c1nn2ccc(-c3cc(Cl)cc(Cl)c3)nc2c1-c1nc2cc(C(F)(F)F)cnc2n1C` [Compound 67, 2-(5-(3,5-Dichlorophenyl)-2-(ethylsulfonyl)pyrazolo[1,5-a]pyrimidin-3-yl)-3-methyl-6-(trifluoromethyl)-3H-imidazo[4,5-b]pyridine], which mortality at 300 ppm is on record?
Its mortality at 300 ppm is > 70%.

`CCS(=O)(=O)c1nn2ccc(-c3cc(Cl)cc(Cl)c3)nc2c1-c1nc2cc(C(F)(F)F)ncc2n1C` [Compound 69, 2-(5-(3,5-Dichlorophenyl)-2-(ethylsulfonyl)pyrazolo[1,5-a]pyrimidin-3-yl)-3-methyl-6-(trifluoromethyl)-3H-imidazo[4,5-c]pyridine] was tested. Which mortality at 300 ppm did it give?
Its mortality at 300 ppm is > 70%.

How did the mortality at 300 ppm turn out when `CCSc1nn2cc(Br)cnc2c1-c1nc2cc(C(F)(F)F)cnc2n1C` [Compound 70, 2-(6-Bromo-2-(ethylthio)pyrazolo[1,5-a]pyrimidin-3-yl)-3-methyl-6-(trifluoromethyl)-3H-imidazo[4,5-b]pyridine] was run?
Its mortality at 300 ppm is > 70%.

With `CCS(=O)(=O)c1nn2cc(-c3ccc(Cl)cc3)cnc2c1-c1nc2cc(C(F)(F)F)ncc2n1C` [Compound 74, 2-(6-(4-Chlorophenyl)-2-(ethylsulfonyl)pyrazolo[1,5-a]pyrimidin-3-yl)-3-methyl-6-(trifluoromethyl)-3H-imidazo[4,5-c]pyridine] as the compound, how does the mortality at 300 ppm read?
The mortality at 300 ppm was > 70%.

For `CCSc1nn2cc(-c3cc(Cl)cc(Cl)c3)cnc2c1-c1nc2cc(C(F)(F)F)ncc2n1C` [Compound 80, 2-(6-(3,5-Dichlorophenyl)-2-(ethylthio)pyrazolo[1,5-a]pyrimidin-3-yl)-3-methyl-6-(trifluoromethyl)-3H-imidazo[4,5-c]pyridine], which mortality at 300 ppm is on record?
Its mortality at 300 ppm is > 70%.

With `CCS(=O)(=O)c1nn2cc(-c3cc(Cl)cc(Cl)c3)cnc2c1-c1nc2cc(C(F)(F)F)ncc2n1C` [Compound 81, 2-(6-(3,5-Dichlorophenyl)-2-(ethylsulfonyl)pyrazolo[1,5-a]pyrimidin-3-yl)-3-methyl-6-(trifluoromethyl)-3H-imidazo[4,5-c]pyridine] as the compound, how does the mortality at 300 ppm read?
The mortality at 300 ppm was > 70%.

With `CCS(=O)(=O)c1nn2ccc(-c3ccc(Cl)cc3)nc2c1-c1nc2cc(C(F)(F)F)cnc2n1C` [Compound 88, 2-(5-(4-Chlorophenyl)-2-(ethylsulfonyl)pyrazolo[1,5-a]pyrimidin-3-yl)-3-methyl-6-(trifluoromethyl)-3H-imidazo[4,5-b]pyridine] as the compound, how does the mortality at 300 ppm read?
The mortality at 300 ppm was > 70%.

Which mortality at 300 ppm does the source give for `CCSc1nn2cc(-c3ccc(OC(F)(F)C(F)F)cc3)cnc2c1-c1nc2cc(C(F)(F)F)cnc2n1C` [Compound 95, 2-(2-(Ethylthio)-6-(4-(1,1,2,2-tetrafluoroethoxy)phenyl)pyrazolo[1,5-a]pyrimidin-3-yl)-3-methyl-6-(trifluoromethyl)-3H-imidazo[4,5-b]pyridine] here?
The mortality at 300 ppm was > 70%.

`CCS(=O)(=O)c1nn2cc(-c3ccc(OC(F)(F)C(F)F)cc3)cnc2c1-c1nc2cc(C(F)(F)F)cnc2n1C` [Compound 96, 2-(2-(Ethylsulfonyl)-6-(4-(1,1,2,2-tetrafluoroethoxy)phenyl)pyrazolo[1,5-a]pyrimidin-3-yl)-3-methyl-6-(trifluoromethyl)-3H-imidazo[4,5-b]pyridine] was tested. Which mortality at 300 ppm did it give?
Its mortality at 300 ppm is > 70%.

How did the mortality at 300 ppm turn out when `CCS(=O)(=O)c1nn2cc(-c3ccc(OC(F)(F)F)cc3)cnc2c1-c1nc2cc(C(F)(F)F)ncc2n1C` [Compound 100, 2-(2-(Ethylsulfonyl)-6-(4-(trifluoromethoxy)phenyl)pyrazolo[1,5-a]pyrimidin-3-yl)-3-methyl-6-(trifluoromethyl)-3H-imidazo[4,5-c]pyridine] was run?
Its mortality at 300 ppm is > 70%.

For `CCS(=O)(=O)c1nn2c(-c3cccc(Cl)c3Cl)ccnc2c1-c1nc2cc(C(F)(F)F)cnc2n1C` [Compound 114, 2-(7-(2,3-Dichlorophenyl)-2-(ethylsulfonyl)pyrazolo[1,5-a]pyrimidin-3-yl)-3-methyl-6-(trifluoromethyl)-3H-imidazo[4,5-b]pyridine], which mortality at 300 ppm is on record?
Its mortality at 300 ppm is > 70%.

For `CCS(=O)(=O)c1nn2c(-c3ccccc3)ccnc2c1-c1nc2cc(C(F)(F)F)cnc2n1C` [Compound 115, 2-(2-(Ethylsulfonyl)-7-phenylpyrazolo[1,5-a]pyrimidin-3-yl)-3-methyl-6-(trifluoromethyl)-3H-imidazo[4,5-b]pyridine], which mortality at 300 ppm is on record?
Its mortality at 300 ppm is > 70%.

`CCS(=O)(=O)c1nn2c(-c3cccc(F)c3)ccnc2c1-c1nc2cc(C(F)(F)F)cnc2n1C` [Compound 130, 2-(2-(Ethylsulfonyl)-7-(3-fluorophenyl)pyrazolo[1,5-a]pyrimidin-3-yl)-3-methyl-6-(trifluoromethyl)-3H-imidazo[4,5-b]pyridine] was tested. Which mortality at 300 ppm did it give?
Its mortality at 300 ppm is > 70%.

Source: patent publication US12384787B2, “Fused heterocyclic compounds and their use as pest control agents” (PI INDUSTRIES LTD., priority 2019, dated 2025)
